According to patent publication US10174067B2, “Type of cytidine derivative and application thereof” (priority 2014, dated 2019):
Marks after values point to notes of the source that are not given here.

What was measured:
[1] = tested on: HCT-116 colon cancer xenografts; test: Tumor growth inhibition of HCT-116 colon cancer xenografts in tumor-bearing nude mice (tumor volume, TGI %, RTV, T/C %); assay type: in vivo, Balb/c Nude mice; conditions: G10-G16 groups, single IP 400 mg/kg
Outline: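 Nude mice inoculated with HCT-116 cells (about 3×10^7 cells/mL in serum-free medium). Tumor diameter measured three times weekly and volume computed as V=3/4π(D/2)^3. Activity expressed as TGI (%) and T/C (%) from relative tumor volume Vt/V0, with V0 taken at grouping and dosing start; P<0.05 significant.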

ICR mice = test: in vivo; conditions: female ICR mice; single-dose ip
Outline: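 Female SPF ICR mice received a single ip dose in ethanol/Cremophor EL/saline (5:5:90), with dose lowered after deaths and raised otherwise. MTD defined as dose causing no death, no >10% weight loss versus Day 0 and no significant side effects; daily weights and twice-daily clinical observation over 7-14 days.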

[2] = Outline: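 Female SPF Balb/c nude mice bearing subcutaneous HCT-116 xenografts (3×10^6 cells, right hind limb), grouped at 60–150 mm^3, 6 per group; vehicle ethanol/Cremophor EL/saline 5:5:90. Body weight thrice weekly; tumours excised and weighed at sacrifice; Mean±SEM, unpaired t-test, P<0.05.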
[3] = Day 1, G10-G16 groups, single IP 400 mg/kg, Mean±SEM
[4] = Day 2, G10-G16 groups, single IP 400 mg/kg, Mean±SEM
[5] = Day 4, G10-G16 groups, single IP 400 mg/kg, Mean±SEM
[6] = Day 7, G10-G16 groups, single IP 400 mg/kg, Mean±SEM
[7] = Day 9, G10-G16 groups, single IP 400 mg/kg, Mean±SEM
[8] = Day 11, G10-G16 groups, single IP 400 mg/kg, Mean±SEM
[9] = Day 14, G10-G16 groups, single IP 400 mg/kg, Mean±SEM
[10] = Day 16, G10-G16 groups, single IP 400 mg/kg, Mean±SEM
[11] = Day 18, G10-G16 groups, single IP 400 mg/kg, Mean±SEM
[12] = Day 21, G10-G16 groups, single IP 400 mg/kg, Mean±SEM
[13] = Day 23, G10-G16 groups, single IP 400 mg/kg, Mean±SEM
[14] = Day 25, G10-G16 groups, single IP 400 mg/kg, Mean±SEM
[15] = Day 28, G10-G16 groups, single IP 400 mg/kg, Mean±SEM
[16] = Day 30, G10-G16 groups, single IP 400 mg/kg, Mean±SEM

Structure (SMILES): O=C(COc1nc(Cl)c(Cl)cc1Cl)OCC1OC(n2cc(-c3cn(Cc4ccccc4)nn3)c(NC(=O)OCc3ccc([N+](=O)[O-])cc3)nc2=O)C(F)(F)C1O (centres unmarked) [Compound G13]
- Day 0 (RTV) ([1]; Day 0): 1.00
- Tumor volume, Day 0 ([1]; Day 0, Mean±SEM): 61.03 ± 13.76* mm^3
- Day 1 (TGI %) ([1]; Day 1): 77.92%
- Day 1 (RTV) ([1]; Day 1, Mean±SEM): 0.91 ± 0.12
- Tumor volume, Day 1 ([1]; Day 1, Mean±SEM): 48.89 ± 5.84** mm^3
- Day 2 (TGI %) ([1]; Day 2): 76.34%
- Day 2 (RTV) ([1]; Day 2, Mean±SEM): 0.95 ± 0.11
- Tumor volume, Day 2 ([1]; Day 2, Mean±SEM): 52.50 ± 8.43** mm^3
- Day 4 (TGI %) ([1]; Day 4): 73.88%
- Day 4 (RTV) ([1]; Day 4, Mean±SEM): 1.31 ± 0.07
- Tumor volume, Day 4 ([1]; Day 4, Mean±SEM): 77.58 ± 16.80** mm^3
- Day 7 (TGI %) ([1]; Day 7): 68.32%
- Day 7 (RTV) ([1]; Day 7, Mean±SEM): 2.39 ± 0.28
- Tumor volume, Day 7 ([1]; Day 7, Mean±SEM): 137.02 ± 30.02** mm^3
- Day 9 (TGI %) ([1]; Day 9): 55.73%
- Day 9 (RTV) ([1]; Day 9, Mean±SEM): 4.07 ± 0.37
- Tumor volume, Day 9 ([1]; Day 9, Mean±SEM): 261.35 ± 79.51* mm^3
- Day 11 (TGI %) ([1]; Day 11): 56.17%
- Day 11 (RTV) ([1]; Day 11, Mean±SEM): 6.38 ± 0.77
- Tumor volume, Day 11 ([1]; Day 11, Mean±SEM): 427.82 ± 136.59** mm^3
- Day 14 (TGI %) ([1]; Day 14): 46.84%
- Day 14 (RTV) ([1]; Day 14, Mean±SEM): 11.17 ± 1.45
- Tumor volume, Day 14 ([1]; Day 14, Mean±SEM): 765.65 ± 247.40* mm^3
- Day 16 (TGI %) ([1]; Day 16): 43.43%
- Day 16 (RTV) ([1]; Day 16, Mean±SEM): 15.55 ± 1.37
- Tumor volume, Day 16 ([1]; Day 16, Mean±SEM): 1024.48 ± 288.64* mm^3
- Day 18 (TGI %) ([1]; Day 18): 36.04%
- Day 18 (RTV) ([1]; Day 18, Mean±SEM): 19.86 ± 1.32
- Tumor volume, Day 18 ([1]; Day 18, Mean±SEM): 1278.22 ± 336.74 mm^3
- Day 21 (TGI %) ([1]; Day 21): 32.28%
- Day 21 (RTV) ([1]; Day 21, Mean±SEM): 26.98 ± 0.99
- Tumor volume, Day 21 ([1]; Day 21, Mean±SEM): 1655.72 ± 370.44 mm^3
- Day 23 (TGI %) ([1]; Day 23): 39.64%
- Day 23 (RTV) ([1]; Day 23, Mean±SEM): 27.42 ± 1.09
- Tumor volume, Day 23 ([1]; Day 23, Mean±SEM): 1425.63 ± 355.57 mm^3
- Day 25 (TGI %) ([1]; Day 25): 38.81%
- Day 25 (RTV) ([1]; Day 25, Mean±SEM): 30.60 ± 1.01
- Tumor volume, Day 25 ([1]; Day 25, Mean±SEM): 1580.18 ± 380.76 mm^3
- Day 28 (TGI %) ([1]; Day 28): 44.77%
- Day 28 (RTV) ([1]; Day 28, Mean±SEM): 35.76 ± 0.97
- Tumor volume, Day 28 ([1]; Day 28, Mean±SEM): 1485.25 ± 290.76 mm^3
- Day 30 (TGI %) ([1]; Day 30): 38.58%
- Day 30 (RTV) ([1]; Day 30, Mean±SEM): 42.06 ± 2.09
- Tumor volume, Day 30 ([1]; Day 30, Mean±SEM): 1723.43 ± 289.91 mm^3
- dose that could be tolerated (maximum tolerated dose, MTD) (ICR mice): 400 mg/kg
- Weight change rate, Day 0 ([2]; Day 0, G10-G16 groups, single IP 400 mg/kg): 0.00%
- Weight of mice, Day 0 ([2]; Day 0, G10-G16 groups, single IP 400 mg/kg, Mean±SEM): 20.43 ± 0.27 g
- Weight change rate, Day 1 [2, 3]: −6.73 ± 0.73 %
- Weight of mice, Day 1 [2, 3]: 19.05 ± 0.17 g
- Weight change rate, Day 2 [2, 4]: −6.78 ± 0.95 %
- Weight of mice, Day 2 [2, 4]: 19.05 ± 0.35 g
- Weight change rate, Day 4 [2, 5]: −3.29 ± 1.05%
- Weight of mice, Day 4 [2, 5]: 19.77 ± 0.40 g
- Weight change rate, Day 7 [2, 6]: −2.67 ± 1.20%
- Weight of mice, Day 7 [2, 6]: 19.90 ± 0.48 g
- Weight change rate, Day 9 [2, 7]: 0.07 ± 2.05%
- Weight of mice, Day 9 [2, 7]: 20.47 ± 0.64 g
- Weight change rate, Day 11 [2, 8]: 0.61 ± 2.23%
- Weight of mice, Day 11 [2, 8]: 20.58 ± 0.69 g
- Weight change rate, Day 14 [2, 9]: 0.35 ± 2.75%
- Weight of mice, Day 14 [2, 9]: 20.53 ± 0.79 g
- Weight change rate, Day 16 [2, 10]: 3.83 ± 3.60%
- Weight of mice, Day 16 [2, 10]: 21.25 ± 0.94 g
- Weight change rate, Day 18 [2, 11]: 4.84 ± 3.19 %
- Weight of mice, Day 18 [2, 11]: 21.45 ± 0.85 g
- Weight change rate, Day 21 [2, 12]: 4.12 ± 3.07 %
- Weight of mice, Day 21 [2, 12]: 21.30 ± 0.81 g
- Day 22 Mortality ([2]; Day 22, single IP dose (mg/kg)): 0%
- Weight change rate, Day 23 [2, 13]: 5.17 ± 4.24%
- Weight of mice, Day 23 [2, 13]: 21.44 ± 1.05 g
- Weight change rate, Day 25 [2, 14]: 9.03 ± 4.91%
- Weight of mice, Day 25 [2, 14]: 22.24 ± 1.24 g
- Weight change rate, Day 28 [2, 15]: 12.25 ± 3.97%
- Weight of mice, Day 28 [2, 15]: 23.08 ± 0.97 g
- Weight change rate, Day 30 [2, 16]: 13.32 ± 4.25%
- Weight of mice, Day 30 [2, 16]: 23.30 ± 1.07 g
- clinical symptoms ([2]; after single IP dose, compared with model control group): no significant differences in clinical symptoms
